Key:
Format in all cases: cell-based
alpha2A receptor = target: T1, alpha2A receptor (Homo sapiens, UniProt P08913); assay: RSAT (Receptor Selection and Amplification Technology) assay, alpha 2A; details: for EC50: RSAT, transfected NIH-3T3 cells, "not active" = not active at concentrations less than 10 micromolar; for Alpha 2A IA: intrinsic activity: ratio of maximal effect of drug to maximal effect of standard full agonist brimonidine (UK14304)
T1 construct: expressed in transfected cells; host or cells: NIH-3T3 cells
T1 sequence (P08913 1-465): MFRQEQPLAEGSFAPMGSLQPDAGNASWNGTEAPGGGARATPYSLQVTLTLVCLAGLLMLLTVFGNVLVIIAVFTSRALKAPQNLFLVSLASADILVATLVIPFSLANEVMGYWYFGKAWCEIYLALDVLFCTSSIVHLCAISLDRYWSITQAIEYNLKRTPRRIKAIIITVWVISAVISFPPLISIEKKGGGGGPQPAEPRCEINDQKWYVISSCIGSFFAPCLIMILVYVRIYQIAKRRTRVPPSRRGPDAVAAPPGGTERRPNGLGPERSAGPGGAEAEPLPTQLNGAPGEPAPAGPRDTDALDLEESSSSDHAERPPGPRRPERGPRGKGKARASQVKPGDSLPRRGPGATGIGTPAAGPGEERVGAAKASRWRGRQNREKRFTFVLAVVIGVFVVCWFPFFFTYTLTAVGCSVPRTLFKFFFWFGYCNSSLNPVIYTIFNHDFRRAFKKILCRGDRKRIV
Source text: (§1) The aryl fluoroethyl ureas of the invention are agonists of alpha2 adrenergic receptors. […] Al, 1995, Pharmacol. Toxicol. 76, pp. 308-311 (incorporated herein by reference) and is also described below. Another reference pertinent to this assay is Conklin et al. (1993) Nature 363:274-6, Receptor Selection and Amplification Technology (RSAT) assay, also incorporated herein by reference.
(§2) The RSAT assay measures a receptor-mediated loss of contact inhibition that results in selective proliferation of receptor-containing cells in a mixed population of confluent cells. The increase in cell number is assessed with an appropriate transfected marker gene such as ∃-galactosidase, the activity of which can be easily measured in a 96-well format. Receptors that activate the G protein, Gq, elicit this response. Alpha 2 receptors, which normally couple to Gi, activate the RSAT response when coexpressed with a hybrid Gq protein that has a Gi receptor recognition domain, called Gq/i5.
(§3) NIH-3T3 cells are plated at a density of 2×10^6 cells in 15 cm dishes and maintained in Dulbecco's modified Eagle's medium supplemented with 10% calf serum. One day later, cells are cotransfected by calcium phosphate precipitation with mammalian expression plasmids encoding p-SV-β-galactosidase (5-10 μg), receptor (1-2 μg) and G protein (1-2 μg). 40 μg salmon sperm DNA may also be included in the transfection mixture. Fresh media is added on the following day and 1-2 days later, cells are harvested and frozen in 50 assay aliquots. Cells are thawed and 100 μl added to 100 μl aliquots of various concentrations of drugs in triplicate in 96-well dishes. Incubations continue 72-96 hr at 37° C. After washing with phosphate-buffered saline, ∃-galactosidase enzyme activity is determined by adding 200 μl of the chromogenic substrate (consisting of 3.5 mM o-nitrophenyl-β-D-galactopyranoside and 0.5% nonidet P-40 in phosphate buffered saline), incubating overnight at 30° C. and measuring optical density at 420 nm. The absorbance is a measure of enzyme activity, which depends on cell number and reflects a receptor-mediated cell proliferation. The efficacy or intrinsic activity is calculated as a ratio of the maximal effect of the drug to the maximal effect of a standard full agonist for each receptor subtype. Brimonidine, also called UK14304, the chemical structure of which is shown below, is used as the standard agonist for the alpha2A, alpha2B and alpha2C receptors.
(§4) The results of the RSAT assay with several exemplary compounds of the invention are disclosed in Table 1 below together with the chemical structures of these compounds. “Not active” means the compounds are not active at concentrations less than 10 micromolar.

alpha2B receptor = target: T2, alpha2B receptor (Homo sapiens, UniProt P18089); assay: RSAT (Receptor Selection and Amplification Technology) assay, alpha 2B; details: for EC50: RSAT, transfected NIH-3T3 cells, "not active" = not active at concentrations less than 10 micromolar, read-out: Alpha 2B EC50; for Alpha 2B IA: intrinsic activity: ratio of maximal effect of drug to maximal effect of standard full agonist brimonidine (UK14304)
T2 construct: expressed in transfected cells; host or cells: NIH-3T3 cells
T2 sequence (P18089 1-450): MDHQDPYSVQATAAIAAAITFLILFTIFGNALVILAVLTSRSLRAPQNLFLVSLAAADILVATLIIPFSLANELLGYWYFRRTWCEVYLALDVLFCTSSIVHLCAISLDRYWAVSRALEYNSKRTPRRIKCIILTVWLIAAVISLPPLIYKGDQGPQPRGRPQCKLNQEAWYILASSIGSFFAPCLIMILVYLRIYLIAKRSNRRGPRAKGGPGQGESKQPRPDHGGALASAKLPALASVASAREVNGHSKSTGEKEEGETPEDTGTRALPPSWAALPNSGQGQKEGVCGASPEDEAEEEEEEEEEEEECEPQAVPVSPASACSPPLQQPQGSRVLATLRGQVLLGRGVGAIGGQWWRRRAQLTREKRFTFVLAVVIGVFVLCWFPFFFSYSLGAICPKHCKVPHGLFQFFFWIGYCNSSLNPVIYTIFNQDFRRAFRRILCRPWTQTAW
Experimental: as §2, §3

alpha2C receptor = target: T3, alpha2C receptor (Homo sapiens, UniProt P18825); assay: RSAT (Receptor Selection and Amplification Technology) assay, alpha 2C; details: for EC50: RSAT, transfected NIH-3T3 cells, "not active" = not active at concentrations less than 10 micromolar; for Alpha 2C IA: intrinsic activity: ratio of maximal effect of drug to maximal effect of standard full agonist brimonidine (UK14304)
T3 construct: expressed in transfected cells; host or cells: NIH-3T3 cells
T3 sequence (P18825 1-462): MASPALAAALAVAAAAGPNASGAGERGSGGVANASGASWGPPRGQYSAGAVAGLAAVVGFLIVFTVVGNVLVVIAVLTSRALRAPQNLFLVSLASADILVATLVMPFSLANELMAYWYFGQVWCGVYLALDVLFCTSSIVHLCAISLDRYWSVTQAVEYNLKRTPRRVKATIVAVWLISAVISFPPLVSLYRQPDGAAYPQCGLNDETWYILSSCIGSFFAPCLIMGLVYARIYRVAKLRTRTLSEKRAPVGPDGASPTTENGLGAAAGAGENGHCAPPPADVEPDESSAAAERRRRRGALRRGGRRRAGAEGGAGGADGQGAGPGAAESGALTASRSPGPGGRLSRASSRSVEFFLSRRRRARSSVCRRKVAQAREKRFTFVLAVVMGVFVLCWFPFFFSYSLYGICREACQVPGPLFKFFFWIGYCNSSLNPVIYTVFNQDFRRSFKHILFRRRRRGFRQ
Source text: as §1, §2, §3, §4

Row | EC50 (alpha2A receptor) [nM] | Alpha 2A IA (alpha2A receptor) | EC50 (alpha2B receptor) [nM] | Alpha 2B IA (alpha2B receptor) | EC50 (alpha2C receptor) [nM] | Alpha 2C IA (alpha2C receptor) | SMILES
1 | 1760 | 0.62 | 414 | 0.78 | 1800 | 0.52 | Cc1cccc(CNC(=O)NCCF)n1 [Compound 36, 1-(2-fluoro-ethyl)-3-(6-methyl-pyridin-2-ylmethyl)-urea]
2 | 3520 | 0.33 | 137 | 0.81 | 1060 | 0.67 | O=C(NCCF)NCc1cccc(O)c1 [Compound 42, 1-(2-fluoro-ethyl)-3-(3-hydroxy-benzyl)-urea]
